# Several values for one entry are separate records, joined by “and”; a condition that tells them apart may be missing. Equal values may be shown once.
# Key:
# Format in all cases: cell-based
# weaponized spores [1] = tested on: weaponized spores
# weaponized spores [2] = tested on: weaponized spores; remark: listed apart in the source
# [3] = tested on: conventional biological indicator spores
# weaponized spores [4] = tested on: weaponized spores; remark: listed apart in the source
# [5] = tested on: conventional biological indicator spores; remark: listed apart in the source
# weaponized spores [6] = tested on: weaponized spores; remark: listed apart in the source
# [7] = tested on: conventional biological indicator spores; remark: listed apart in the source
# weaponized spores [8] = tested on: weaponized spores; remark: listed apart in the source
# [9] = tested on: TP 10 (conventional bioindicator spores)
# weaponized spores [10] = tested on: weaponized spores; remark: listed apart in the source
smiles,measurement,setting,value
[O][Cl+][O-] [chlorine dioxide],filters showing viable spores following decontamination (out of 16),weaponized spores [1],none
same,"filters with viable spores/filters, Humidification time 1 hour",weaponized spores [2],0/2
same,"filters with viable spores/filters, Humidification time 2 hours",weaponized spores [2],0/2
same,"filters with viable spores/filters, Humidification time 3 hours",weaponized spores [2],0/2
same,"filters with viable spores/filters, Humidification time 1 hour",[3],0/2
same,"filters with viable spores/filters, Humidification time 2 hours",[3],0/2
same,"filters with viable spores/filters, Humidification time 3 hours",[3],0/2
same,"filters with viable spores/filters, ClO2 Concentration 500 ppm",weaponized spores [4],3/4 and 2/2; and 2/2
same,"filters with viable spores/filters, ClO2 Concentration 1000 ppm",weaponized spores [4],0/2
same,"filters with viable spores/filters, ClO2 Concentration 2500 ppm",weaponized spores [4],0/2
same,"viable spore count, ClO2 Concentration 500 ppm",weaponized spores [4],1.43 × 10^3
same,"filters with viable spores/filters, ClO2 Concentration 500 ppm",[5],0/2
same,"filters with viable spores/filters, ClO2 Concentration 1000 ppm",[5],0/2
same,"filters with viable spores/filters, ClO2 Concentration 2500 ppm",[5],0/2
same,"viability in culture, Humidification Time 1 hour",weaponized spores [6],Positive
same,"viability in culture, Humidification Time 2 hours",weaponized spores [6],Positive
same,"viability in culture, Humidification Time 3 hours",weaponized spores [6],Positive
same,"viability in culture, Humidification Time 1 hour",[7],Negative
same,"viability in culture, Humidification Time 2 hours",[7],Negative
same,"viability in culture, Humidification Time 3 hours",[7],Negative
same,viable spores after Cycle 1,weaponized spores [8],5.7 × 10^4
same,viable spores after Cycle 2,weaponized spores [8],0
same,viable spores after Cycle 3,weaponized spores [8],3.3 × 10^1
same,viable spores after Cycle 1,[9],4.3 × 10^5
same,viable spores after Cycle 2,[9],1.3 × 10^3
same,viable spores after Cycle 3,[9],7.2 × 10^2
same,10^−4 (Dilution on agar),weaponized spores [10],TNTC
